Results taken from US20240316038A1, “APOL1 INHIBITORS AND METHODS OF USE” (Maze Therapeutics, Inc., priority 2021, published 2024).

Columns and labels:
[1] = target: T1, APOL1 G2 (Homo sapiens, UniProt O14791, DEL388-389); assay: APOL1 calcium transport inhibition assay (GCaMP6f calcium influx, FLIPR) in HEK T-REx/GCaMP6f/APOL1 G2 K6.3 cells; type: cell-based; details: inhibition of APOL1-mediated calcium influx; geometric mean of at least 2 assay runs, † = single assay run (technical duplicate)
T1 construct: expressed in transfected cells; host or cells: HEK293 T-REx clonal lines: HEK T-REx/GCaMP6f/APOL1 G2 K6.3 in A1, HEK293/T-REx APOL1 G2/clone #2 in A2
T1 sequence (O14791 with tags, fused parts or gaps DEL388-389): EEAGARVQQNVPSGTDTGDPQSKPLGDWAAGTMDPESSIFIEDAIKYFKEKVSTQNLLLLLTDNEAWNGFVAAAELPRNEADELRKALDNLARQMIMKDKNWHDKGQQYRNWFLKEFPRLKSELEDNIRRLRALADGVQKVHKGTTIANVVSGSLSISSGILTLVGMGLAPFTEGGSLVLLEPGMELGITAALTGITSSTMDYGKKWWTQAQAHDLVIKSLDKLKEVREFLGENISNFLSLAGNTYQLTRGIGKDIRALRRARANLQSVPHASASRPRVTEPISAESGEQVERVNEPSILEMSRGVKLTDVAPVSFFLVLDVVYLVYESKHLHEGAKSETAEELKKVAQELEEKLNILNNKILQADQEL
Outline: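 HEK293 cells stably expressing GCaMP6f, APOL1 G2 induced 6 h with doxycycline (20 ng/mL added), then washed into Ca2+-free Tyrode's buffer pH 7.4. Compounds (8-point dose response) preincubated 10 min at room temperature, then Ca2+ injected to 5 mM final and influx read on FLIPR. AC50 reported as geometric mean of runs.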

[2] = target: T1, APOL1 G2; assay: Rescue of HEK293 cell death caused by overexpression of APOL1 (CellTiter-Glo luminescence), HEK293/T-REx APOL1 G2/clone #2; type: cell-based; details: reversal of cell death caused by overexpression of APOL1; geometric mean of at least 2 assay runs, † = single assay run (technical duplicate)
Outline: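 HEK293/T-REx APOL1 G2 clone #2 cells, 5,000/well, induced with 6 ng/mL doxycycline and exposed to compound (8-point, 3-fold dilutions, 0.5% DMSO) for 17 h at 37 °C. Viability by CellTiter-Glo luminescence; EC50 for reversal of APOL1-induced death from a four-parameter logistic fit, geometric mean of ≥2 runs.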

AC50 [1] [µM] | Structure (SMILES) | EC50 [2] [µM]
0.207 | CC1CC(COc2ccc(S(C)(=O)=O)cc2)CN1CCc1cccc(C#N)c1 (single isomer, unassigned) [Compound 136, rac-trans or cis-3-{2-[4-[(4-methanesulfon-ylphenoxy)meth-yl]-2-methyl-pyrrolidin-1-yl]-ethyl}benzo-nitrile] | 0.11
0.26 | CS(=O)(=O)c1ccc(OC[C@@H]2CN(CCc3cc(Cl)ccc3OC(F)F)CCN2)cc1 [Compound 192, (3S)-1-{2-[5-chloro-2-(difluoromethoxy)phenyl]eth-yl}-3-[(4-methanesulfonylphenoxy)methyl]piperazine] | 0.915
0.468 | CS(=O)(=O)c1ccc(OC[C@@H](O)CN[C@H]2C[C@H](c3cccc(Cl)c3)C2)cc1 [Compound 66, (S)-1-((trans-3-(3-chlorophenyl)cyclo-butyl)amino)-3-(4-(methylsulfonyl)phe-noxy)propan-2-ol] | 1.38
0.784 | C[C@@H]1C[C@H](COc2ccc(S(C)(=O)=O)cc2)CN1CC(O)c1cc(C#N)cc(C#N)c1 (single isomer, unassigned) [Compound 119, 5-[(1S or 1R)-1-hydroxy-2-[(2R,4S)-4-[(4-methanesulfonylphenoxy)methyl]-2-methylpyrrolidin-1-yl]ethyl]benzene-1,3-dicarbonitrile] | 0.133
5.73 | CS(=O)(=O)c1ccc(OC[C@H]2CCCN(CC(O)c3cccc(Cl)c3)C2)cc1 (single isomer, unassigned) [Compound 18, (R) or (S)-1-(3-chlorophenyl)-2-((S)-3-((4-(methylsulfonyl)phenoxy)methyl)piperidin-1-yl)ethan-1-ol] | 6.32
10.8 | COC1CCN(CCc2cccc(Cl)c2)CC1COc1ccc(S(C)(=O)=O)cc1 (single isomer, unassigned) [Compound 33, rac-trans or cis-1-(3-chlorophenethyl)-4-methoxy-3-((4-(methylsulfonyl)phenoxy)methyl)piperidine] | > 8.67
0.727 | CS(=O)(=O)c1ccc(OC[C@H]2CCN(CCc3cccc(Cl)c3)C2)cc1 [Compound 51, (S)-1-(3-chlorophenethyl)-3-((4-(methylsulfonyl)phenoxy)methyl)pyrrolidine] | 1.49
0.148 | C[C@@H]1CN(CC(O)c2cccc(Cl)c2)C[C@H]1COc1ccc(S(C)(=O)=O)cc1 (single isomer, unassigned) [Compound 124, (1R or 1S)-1-(3-chlorophenyl)-2-[(3S,4S)-3-[(4-methanesulfonylphenoxy)methyl]-4-methylpyrrolidin-1-yl]ethan-1-ol] | 0.242
1.29 | CC1CC(COc2ccc(S(C)(=O)=O)cc2)CN1CCc1cccc(Cl)c1 (single isomer, unassigned) [Compound 55, (2R,4S) or (2R,4R) or (2S,4R) or (2S,4S)-1-(3-chlorophenethyl)-2-methyl-4-((4-(methylsulfonyl)phenoxy)methyl)pyrrolidine] | 1.68
4.35 | CN(c1ccc(OC[C@@H](O)CN2CCOC(c3cccc(Cl)c3)C2)cc1)S(C)(=O)=O (single isomer, unassigned) [Compound 82, N-(4-((S)-3-((R) or (S)-2-(3-chlorophenyl)morpho-lino)-2-hydroxypropoxy)phe-nyl)-N-methylmethanesulfon-amide] | > 24.3
1.3 | CN(c1ccc(OC[C@@H](O)CNCCc2ccccc2OC(F)F)cc1)S(C)(=O)=O [Compound 101, (S)-N-(4-(3-((2-(difluoromethoxy)phenethyl)amino)-2-hydroxypropoxy)phe-nyl)-N-methylmethanesulfon-amide] | 10.1
1.29 | CN(c1ccc(OC[C@@H](O)CN2CCC(c3cccc(Cl)c3)C2)cc1)S(C)(=O)=O (stereo partly drawn) [Compound 74, N-(4-((2S)-3-(3-(3-chlorophenyl)pyrro-lidin-1-yl)-2-hydroxypropoxy)phe-nyl)-N-methylmethanesulfon-amide] | 2.58
> 10 | CC1CC(COc2ccc(S(C)(=O)=O)cc2)CN1CCc1cccc(C#N)c1 (single isomer, unassigned) [Compound 137, 3-{2-[(2S,4R or 2R,4S or 2R,4R or 2S,4S)-4-[(4-methanesulfon-ylphenoxy)meth-yl]-2-methyl-pyrrolidin-1-yl]-ethyl}benzo-nitrile] | 4.62
2.17 | C[C@@H]1CN(CC(O)c2cc(C#N)cc(C#N)c2)C[C@H]1COc1ccc(S(C)(=O)=O)cc1 (single isomer, unassigned) [Compound 130, 5-[(1R or 1S)-1-hydroxy-2-[(3S,4S)-3-[(4-methanesulfonylphenoxy)methyl]-4-methylpyrrolidin-1-yl]ethyl]benzene-1,3-dicarbonitrile] | > 10
1.04 | C[C@@H]1CN(CC(O)c2cc(C#N)cc(C#N)c2)C[C@H]1COc1ccc(S(C)(=O)=O)cc1 (stereo partly drawn) [Compound 129, 5-{1-hydroxy-2-[(3S,4S)-3-[(4-methanesulfonylphenoxy)methyl]-4-methylpyrrolidin-1-yl]ethyl}benzene-1,3-dicarbonitrile] | 0.723
0.179 | C[C@@H]1CN(CCc2cccc(C#N)c2)C[C@H]1COc1ccc(S(=O)(=O)CCCS(C)(=O)=O)cc1 [Compound 168, 3-{2-[(3S,4S)-3-{[4-(3-methanesulfonylpro-panesulfonyl)phe-noxy]methyl}-4-methylpyrrolidin-1-yl]ethyl}benzonitrile] | 0.126
0.477 | CC1(C)CC(COc2ccc(S(C)(=O)=O)cc2)CN1CCc1cccc(Cl)c1 (stereo not shown) [Compound 42, 1-(3-chlorophenethyl)-2,2-dimethyl-4-((4-(methylsulfonyl)phenoxy)methyl) pyrrolidine] | 0.059
9.3 | CC1CC(COc2ccc(S(C)(=O)=O)cc2)CN1CCc1cc(Cl)cc(C#N)c1 (single isomer, unassigned) [Compound 203, 3-chloro-5-(2-((2R,4S or 2S,4R or 2R,4R or 2S,4S)-2-methyl-4-((4-(methylsulfonyl)phenoxy)methyl)pyrrolidin-1-yl)ethyl)benzonitrile] | 3.54
0.494 | COCCS(=O)(=O)c1ccc(OC[C@@H]2CN(CCc3cccc(Cl)c3)C[C@H]2C)cc1 (single isomer, unassigned) [Compound 111, (3S,4S or 3R,4R)-1-[2-(3-chlorophenyl)ethyl]-3-{[4-(2-methoxyethane-sulfonyl)phenoxy]methyl}-4-methylpyrrolidine] | 1.88
0.634 | CS(=O)(=O)c1ccc(OC[C@@H]2CN(CCc3cc(Cl)cc(C#N)c3)CCN2)cc1 [Compound 189, 3-chloro-5-{2-[(3S)-3-[(4-methanesulfonylphenoxy)methyl]piperazin-1-yl]ethyl}benzonitrile] | 0.922
0.108 | C[C@@H]1CN(CCc2cc(Br)cc(C#N)c2)C[C@H]1COc1ccc(S(C)(=O)=O)cc1 [Compound 196, 3-bromo-5-{2-[(3S,4S)-3-[(4-methanesulfonylphenoxy)methyl]-4-methylpyrrolidin-1-yl]ethyl}benzonitrile] | 0.11
0.472 | CN(c1ccc(OC[C@@H](O)CNCCc2cc(Cl)cc(Cl)c2)cc1)S(C)(=O)=O [Compound 91, (S)-N-(4-(3-((3,5-dichlorophenethyl)amino)-2-hydroxypropoxy)phe-nyl)-N-methylmethanesulfon-amide] | 1.04
0.409 | C[C@@H]1C[C@H](COc2ccc(S(=O)(=O)CCO)cc2)CN1CCc1cc(Cl)cc(C#N)c1 [Compound 165, 3-chloro-5-{2-[(2R,4S)-4-{[4-(2-hydroxyethanesul-fonyl)phenoxy]meth-yl}-2-methylpyrrolidin-1-yl]ethyl}benzonitrile] | 0.0302
10.9 | CN(c1ccc(OCC(C)(O)CNCCc2cccc(Cl)c2)cc1)S(C)(=O)=O (single isomer, unassigned) [Compound 103, (R) or (S)-N-(4-(3-((3-chlorophenethyl)a-mino)-2-hydroxy-2-methylpropxy)phe-nyl)-N-methylmethanesulfon-amide] | > 30
1.62 | CS(=O)(=O)c1ccc(OC[C@H](O)CNCCc2cccc(Cl)c2)cc1 [Compound 94, (R)-1-((3-chlorophenethyl)a-mino)-3-(4-(methylsulfonyl)phe-noxy)propan-2-ol] | 8.37
0.27 | C[C@@H]1CN(CC(O)c2cc(Cl)cc(C#N)c2)C[C@H]1COc1ccc(S(C)(=O)=O)cc1 (single isomer, unassigned) [Compound 121, 3-chloro-5-[(1S or 1R)-1-hydroxy-2-[(3S,4S)-3-[(4-methanesulfonylphenoxy)methyl]-4-methylpyrrolidin-1-ylethyl]benzonitrile] | 0.1
